Literature values, collected in paper PMC3907537, “Evaluation of the Endothelin Receptor Antagonists Ambrisentan, Bosentan, Macitentan, and Sitaxsentan as Hepatobiliary Transporter Inhibitors and Substrates in Sandwich-Cultured Human Hepatocytes” (PLoS ONE, 2014).
Values joined by “and” are separate entries in the source; they are usually repeats but may differ in a detail not shown here. Equal values may be shown once. Read-outs that look alike come from different tables or passages of the source.

How the values were obtained:
BSEP [1] = tested on: BSEP; design: method as in PMID 11309550, PMID 20829430, PMID 17061295, PMID 23956101; conditions: read-out: BSEP inhibition values previously reported (IC50); cited from earlier work
murine Pgp = tested on: murine Pgp; design: method as in PMID 23353592; conditions: cited from earlier work
canine BCRP = tested on: canine BCRP; design: method as in PMID 23353592; conditions: cited from earlier work
human OATP1B1 = conditions: cited from earlier work
OATP1B3 = target: T1, OATP1B3 (Homo sapiens, UniProt Q9NPD5); conditions: cited from earlier work
T1 construct: host or cells: CHO
T1 sequence (Q9NPD5 1-702): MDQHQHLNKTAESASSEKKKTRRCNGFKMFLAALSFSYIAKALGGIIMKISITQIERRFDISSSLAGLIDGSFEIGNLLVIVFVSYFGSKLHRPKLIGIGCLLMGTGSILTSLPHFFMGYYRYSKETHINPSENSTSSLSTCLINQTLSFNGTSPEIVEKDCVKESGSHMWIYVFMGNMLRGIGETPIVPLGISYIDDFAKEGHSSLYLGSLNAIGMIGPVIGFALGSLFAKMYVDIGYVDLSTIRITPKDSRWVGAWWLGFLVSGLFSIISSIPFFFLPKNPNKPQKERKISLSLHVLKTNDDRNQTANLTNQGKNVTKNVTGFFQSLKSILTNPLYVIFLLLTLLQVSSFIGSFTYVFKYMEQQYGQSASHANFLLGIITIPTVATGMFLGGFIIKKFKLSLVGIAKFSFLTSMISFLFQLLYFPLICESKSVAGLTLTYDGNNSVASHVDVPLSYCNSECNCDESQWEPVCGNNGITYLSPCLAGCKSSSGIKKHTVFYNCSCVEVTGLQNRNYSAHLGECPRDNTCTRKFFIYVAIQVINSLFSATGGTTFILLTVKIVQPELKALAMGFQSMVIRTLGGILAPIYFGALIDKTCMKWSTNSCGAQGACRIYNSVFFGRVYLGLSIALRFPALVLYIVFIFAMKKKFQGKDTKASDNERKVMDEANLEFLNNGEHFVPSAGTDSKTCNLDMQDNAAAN

human Pgp = tested on: human Pgp; design: method as in PMID 22348175; conditions: at doses up to 50 µM, Kim et al. ref 46; cited from earlier work
[2] = cited from earlier work
BCRP = target: T2, BCRP (Homo sapiens, UniProt Q9UNQ0); design: method as in earlier work; conditions: data previously reported, similar conditions ref 35; cited from earlier work
T2 construct: host or cells: MDCKII
T2 sequence (Q9UNQ0 1-655): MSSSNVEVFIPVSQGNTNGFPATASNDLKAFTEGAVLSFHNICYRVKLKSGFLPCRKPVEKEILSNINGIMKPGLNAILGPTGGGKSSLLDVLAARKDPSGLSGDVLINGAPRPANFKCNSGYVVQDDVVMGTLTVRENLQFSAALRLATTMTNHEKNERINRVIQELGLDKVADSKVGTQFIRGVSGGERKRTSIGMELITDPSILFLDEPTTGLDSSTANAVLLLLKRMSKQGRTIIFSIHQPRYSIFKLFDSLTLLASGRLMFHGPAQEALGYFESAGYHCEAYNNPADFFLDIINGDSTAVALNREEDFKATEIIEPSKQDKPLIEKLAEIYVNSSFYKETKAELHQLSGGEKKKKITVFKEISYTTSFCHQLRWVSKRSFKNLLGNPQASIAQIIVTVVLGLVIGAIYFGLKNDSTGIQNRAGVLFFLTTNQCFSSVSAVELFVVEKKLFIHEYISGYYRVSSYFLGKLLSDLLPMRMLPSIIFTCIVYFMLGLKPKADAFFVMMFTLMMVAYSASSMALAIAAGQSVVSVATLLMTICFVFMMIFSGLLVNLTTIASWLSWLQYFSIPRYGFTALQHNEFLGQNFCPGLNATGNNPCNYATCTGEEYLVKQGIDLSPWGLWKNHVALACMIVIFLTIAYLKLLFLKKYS

BSEP [3] = target: T3, BSEP (Homo sapiens, UniProt O95342); design: method as in earlier work; conditions: data previously reported, same assay conditions ref 35; cited from earlier work
T3 construct: purchased Solvo Biotechnology, Budaors, Hungary; host or cells: Sf9 insect cells (membrane vesicles)
T3 sequence (O95342 whole entry): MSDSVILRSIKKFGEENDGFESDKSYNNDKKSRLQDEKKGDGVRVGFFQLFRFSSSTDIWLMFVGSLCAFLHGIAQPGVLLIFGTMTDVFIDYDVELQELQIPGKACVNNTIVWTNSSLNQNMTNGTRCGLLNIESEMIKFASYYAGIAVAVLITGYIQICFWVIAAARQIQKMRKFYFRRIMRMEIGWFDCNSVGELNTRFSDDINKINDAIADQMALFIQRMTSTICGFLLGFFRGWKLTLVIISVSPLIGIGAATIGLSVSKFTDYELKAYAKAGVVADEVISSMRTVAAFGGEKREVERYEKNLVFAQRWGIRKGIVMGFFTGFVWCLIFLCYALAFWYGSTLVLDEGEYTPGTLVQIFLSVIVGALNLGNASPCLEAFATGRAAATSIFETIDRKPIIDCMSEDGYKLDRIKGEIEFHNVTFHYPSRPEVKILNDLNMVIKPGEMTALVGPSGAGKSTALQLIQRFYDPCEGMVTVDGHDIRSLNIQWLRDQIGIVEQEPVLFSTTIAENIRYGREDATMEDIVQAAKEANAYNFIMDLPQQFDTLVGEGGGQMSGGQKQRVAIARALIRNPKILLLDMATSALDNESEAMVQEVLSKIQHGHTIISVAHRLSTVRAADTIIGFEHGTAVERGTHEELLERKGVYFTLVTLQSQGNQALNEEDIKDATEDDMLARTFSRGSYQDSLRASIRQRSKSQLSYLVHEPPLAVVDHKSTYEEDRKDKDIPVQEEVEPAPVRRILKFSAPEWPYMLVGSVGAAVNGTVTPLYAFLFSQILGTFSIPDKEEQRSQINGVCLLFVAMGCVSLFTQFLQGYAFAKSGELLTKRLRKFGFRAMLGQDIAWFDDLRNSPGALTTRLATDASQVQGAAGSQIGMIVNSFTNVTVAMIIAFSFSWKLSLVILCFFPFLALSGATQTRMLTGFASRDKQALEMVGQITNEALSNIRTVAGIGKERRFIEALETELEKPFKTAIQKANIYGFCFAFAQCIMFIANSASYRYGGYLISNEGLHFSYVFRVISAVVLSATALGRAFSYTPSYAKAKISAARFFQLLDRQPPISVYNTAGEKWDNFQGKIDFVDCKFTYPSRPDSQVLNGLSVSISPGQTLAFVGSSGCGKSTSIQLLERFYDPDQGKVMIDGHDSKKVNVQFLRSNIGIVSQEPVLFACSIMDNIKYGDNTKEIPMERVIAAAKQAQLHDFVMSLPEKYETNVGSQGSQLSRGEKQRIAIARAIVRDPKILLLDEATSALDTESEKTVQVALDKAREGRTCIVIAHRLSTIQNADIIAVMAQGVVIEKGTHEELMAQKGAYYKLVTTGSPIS

MRP2 = target: T4, MRP2 (Homo sapiens, UniProt Q92887); design: method as in earlier work; conditions: data previously reported ref 35; cited from earlier work
T4 construct: purchased Solvo Biotechnology, Budaors, Hungary; host or cells: Sf9 insect cells (membrane vesicles)
T4 sequence (Q92887 whole entry): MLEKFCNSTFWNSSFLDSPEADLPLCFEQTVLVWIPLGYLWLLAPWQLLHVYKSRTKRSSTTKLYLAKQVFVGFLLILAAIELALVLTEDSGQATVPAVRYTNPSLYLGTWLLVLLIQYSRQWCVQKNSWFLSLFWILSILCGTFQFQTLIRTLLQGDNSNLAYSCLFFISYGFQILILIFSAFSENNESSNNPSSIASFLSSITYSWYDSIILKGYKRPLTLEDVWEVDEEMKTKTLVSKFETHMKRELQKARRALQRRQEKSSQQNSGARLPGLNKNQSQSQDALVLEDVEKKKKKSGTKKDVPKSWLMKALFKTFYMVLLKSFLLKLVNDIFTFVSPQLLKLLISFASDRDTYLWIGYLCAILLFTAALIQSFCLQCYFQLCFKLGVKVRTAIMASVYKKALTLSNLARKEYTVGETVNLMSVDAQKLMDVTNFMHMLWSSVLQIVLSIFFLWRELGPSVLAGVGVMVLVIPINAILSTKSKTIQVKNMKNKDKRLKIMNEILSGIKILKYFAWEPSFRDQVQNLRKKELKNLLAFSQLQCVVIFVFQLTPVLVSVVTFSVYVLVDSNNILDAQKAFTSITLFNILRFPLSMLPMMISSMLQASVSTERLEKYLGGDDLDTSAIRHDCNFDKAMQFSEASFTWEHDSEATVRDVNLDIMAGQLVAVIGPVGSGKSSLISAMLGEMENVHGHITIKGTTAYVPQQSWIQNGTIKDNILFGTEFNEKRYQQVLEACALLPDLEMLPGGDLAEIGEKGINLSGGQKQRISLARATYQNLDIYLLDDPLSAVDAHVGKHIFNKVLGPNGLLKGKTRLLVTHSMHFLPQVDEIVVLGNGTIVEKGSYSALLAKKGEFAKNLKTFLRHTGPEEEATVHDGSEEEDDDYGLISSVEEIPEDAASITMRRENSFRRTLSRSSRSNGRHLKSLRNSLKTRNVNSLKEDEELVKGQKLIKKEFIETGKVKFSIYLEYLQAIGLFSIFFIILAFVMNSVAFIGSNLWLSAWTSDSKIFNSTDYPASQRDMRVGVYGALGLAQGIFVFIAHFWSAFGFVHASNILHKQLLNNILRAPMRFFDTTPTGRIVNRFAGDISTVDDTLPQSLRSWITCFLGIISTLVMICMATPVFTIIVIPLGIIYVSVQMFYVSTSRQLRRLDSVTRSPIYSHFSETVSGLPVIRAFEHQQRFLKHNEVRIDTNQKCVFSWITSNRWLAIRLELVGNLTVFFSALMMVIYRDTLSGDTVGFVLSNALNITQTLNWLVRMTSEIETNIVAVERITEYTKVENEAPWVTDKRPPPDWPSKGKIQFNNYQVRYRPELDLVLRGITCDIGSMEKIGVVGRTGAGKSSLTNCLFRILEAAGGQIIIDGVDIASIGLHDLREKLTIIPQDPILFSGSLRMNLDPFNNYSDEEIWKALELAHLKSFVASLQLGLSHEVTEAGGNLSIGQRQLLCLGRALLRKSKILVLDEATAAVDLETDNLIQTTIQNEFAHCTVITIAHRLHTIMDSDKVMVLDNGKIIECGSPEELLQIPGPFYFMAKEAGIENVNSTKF

Pgp = target: T5, Pgp (Homo sapiens, UniProt P08183); design: method as in earlier work; conditions: data previously reported, similar conditions ref 35; cited from earlier work
T5 construct: host or cells: MDCKII
T5 sequence (P08183 whole entry): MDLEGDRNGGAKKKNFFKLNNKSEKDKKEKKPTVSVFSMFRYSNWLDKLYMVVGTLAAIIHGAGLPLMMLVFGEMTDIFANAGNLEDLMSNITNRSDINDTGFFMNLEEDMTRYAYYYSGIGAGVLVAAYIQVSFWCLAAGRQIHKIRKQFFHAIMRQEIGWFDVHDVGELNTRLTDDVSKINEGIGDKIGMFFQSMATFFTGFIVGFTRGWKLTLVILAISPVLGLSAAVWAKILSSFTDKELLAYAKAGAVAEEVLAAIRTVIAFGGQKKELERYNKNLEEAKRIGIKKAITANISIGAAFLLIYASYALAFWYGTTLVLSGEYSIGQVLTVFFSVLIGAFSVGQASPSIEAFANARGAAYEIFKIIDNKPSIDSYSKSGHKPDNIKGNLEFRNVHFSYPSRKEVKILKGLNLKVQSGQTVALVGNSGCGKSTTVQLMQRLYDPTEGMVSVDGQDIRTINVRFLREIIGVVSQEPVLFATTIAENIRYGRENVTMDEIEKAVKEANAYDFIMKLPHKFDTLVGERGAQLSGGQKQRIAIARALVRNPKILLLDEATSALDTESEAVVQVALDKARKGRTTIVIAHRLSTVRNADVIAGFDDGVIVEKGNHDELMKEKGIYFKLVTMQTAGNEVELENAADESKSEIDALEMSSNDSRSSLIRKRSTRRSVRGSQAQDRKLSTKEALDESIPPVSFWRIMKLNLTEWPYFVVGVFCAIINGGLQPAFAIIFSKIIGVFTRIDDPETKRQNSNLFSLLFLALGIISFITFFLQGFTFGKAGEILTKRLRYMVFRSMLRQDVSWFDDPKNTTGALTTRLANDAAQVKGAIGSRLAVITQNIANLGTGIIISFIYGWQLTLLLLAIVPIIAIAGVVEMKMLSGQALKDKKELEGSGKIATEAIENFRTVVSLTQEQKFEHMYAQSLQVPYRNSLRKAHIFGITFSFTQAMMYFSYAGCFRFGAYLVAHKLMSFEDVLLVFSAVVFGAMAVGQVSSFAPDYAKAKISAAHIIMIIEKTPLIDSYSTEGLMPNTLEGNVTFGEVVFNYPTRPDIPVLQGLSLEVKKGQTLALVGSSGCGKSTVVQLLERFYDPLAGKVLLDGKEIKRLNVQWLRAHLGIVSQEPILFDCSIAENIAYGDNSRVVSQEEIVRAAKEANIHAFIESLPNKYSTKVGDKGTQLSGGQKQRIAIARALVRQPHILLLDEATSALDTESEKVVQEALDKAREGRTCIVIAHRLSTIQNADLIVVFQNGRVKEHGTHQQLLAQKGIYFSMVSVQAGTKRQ

For `COc1ccccc1Oc1c(NS(=O)(=O)c2ccc(C(C)(C)C)cc2)nc(-c2ncccn2)nc1OCCO` [bosentan], the IC50 (BSEP [1]) is given as 12 to 76.8 µM.

In the case of `CCCNS(=O)(=O)Nc1ncnc(OCCOc2ncc(Br)cn2)c1-c1ccc(Br)cc1` [macitentan], the IC50 (murine Pgp) is listed as 4.4 µM and 4 µM, the IC50 (canine BCRP) is listed as 13.2 µM and 13 µM and the IC50 (human OATP1B1; Bruderer et al. ref 36, read-out: OATP1B1 IC50) is listed as 6.3 µM. For the same compound, the IC50 (human OATP1B1; read-out: human OATP1B1 IC50) was 4.4 µM, the IC50 (OATP1B3; Bruderer et al. ref 36) was 11.8 µM and the IC50 (OATP1B3) was 10 µM. The “inhibition of human Pgp” value (human Pgp) was “no inhibition”, the “elevations >8X ULN on macitentan compared to placebo” value ([2]; SERAPHIN ref 19) was roughly 5 fold and the “incidence of serum aminotransferase elevations >3X ULN” value ([2]; SERAPHIN, PAH patients, up to 103.9 weeks, placebo 4.5% ref 17, 19) was 3.4%. The “incidence of aminotransferase elevations >8X ULN” value ([2]; SERAPHIN, placebo 0.4% ref 19) was 2.1%.

In the case of `Cc1cc2c(cc1CC(=O)c1sccc1S(=O)(=O)Nc1onc(C)c1Cl)OCO2` [sitaxsentan], the IC50 (BCRP) is listed as greater than 100 µM, the IC50 (BSEP [3]) is listed as 25 µM and the IC50 (MRP2) is listed as greater than 100 µM. For the same compound, the IC50 (Pgp) was greater than 100 µM.
